Measurements published in PubChem BioAssay AID1259407 (Chemical Carcinogenesis Research Information System (CCRIS), 2018).
Active and inactive are the calls of the source. No rule for the calls is given here.

System: CCRIS mutagenicity, Ames/micronucleus/aberration tests
Experiment: CCRIS mutagenicity studies
[1] = Test System: AMES SALMONELLA TYPHIMURIUM, Strain/Indicator: TA1535, Metabolic Activation: NONE, Method: PREINCUBATION
[2] = Test System: AMES SALMONELLA TYPHIMURIUM, Strain/Indicator: TA1535, Metabolic Activation: NONE, Method: STANDARD PLATE
[3] = Test System: AMES SALMONELLA TYPHIMURIUM, Strain/Indicator: TA98, Metabolic Activation: NONE, Method: PREINCUBATION
[4] = Test System: AMES SALMONELLA TYPHIMURIUM, Strain/Indicator: TA100, Metabolic Activation: NONE, Method: STANDARD PLATE
[5] = Test System: AMES SALMONELLA TYPHIMURIUM, Strain/Indicator: TA100, Metabolic Activation: RAT, LIVER, S-9, AROCLOR 1254, Method: STANDARD PLATE
[6] = Test System: AMES SALMONELLA TYPHIMURIUM, Strain/Indicator: TA100, Metabolic Activation: NONE, Method: PREINCUBATION
[7] = Test System: AMES SALMONELLA TYPHIMURIUM, Strain/Indicator: TA98, Metabolic Activation: NONE, Method: STANDARD PLATE
[8] = Test System: AMES SALMONELLA TYPHIMURIUM, Strain/Indicator: TA1537, Metabolic Activation: NONE, Method: STANDARD PLATE

SMILES: CN=[N+](C)[O-]
- mutagenic call (Test System: AMES SALMONELLA TYPHIMURIUM, Strain/Indicator: TA100, Metabolic Activation: RAT, LIVER, S-9, KC500 OR PHENOBARBITAL, Method: LIQUID SUSPENSION): active; positive
- mutagenic call (Test System: AMES SALMONELLA TYPHIMURIUM, Strain/Indicator: TA1535, Metabolic Activation: HAMSTER, LIVER, S-9, AROCLOR 1254, Method: PREINCUBATION): inactive; negative
- mutagenic call [1]: inactive; negative
- mutagenic call [2]: inactive; negative
- mutagenic call (Test System: AMES SALMONELLA TYPHIMURIUM, Strain/Indicator: TA1535, Metabolic Activation: RAT, LIVER, S-9, AROCLOR 1254, Method: PREINCUBATION): inactive; negative
- mutagenic call (Test System: AMES SALMONELLA TYPHIMURIUM, Strain/Indicator: TA1535, Metabolic Activation: RAT, LIVER, S-9, KC500 OR PHENOBARBITAL, Method: LIQUID SUSPENSION): active; positive
- mutagenic call (Test System: AMES SALMONELLA TYPHIMURIUM, Strain/Indicator: YG7108, Metabolic Activation: NONE, Method: STANDARD PLATE): active; positive
- mutagenic call (Test System: E. COLI, Strain/Indicator: WP2 UVRA, Metabolic Activation: HAMSTER, LIVER, S-9, AROCLOR 1254, Method: PREINCUBATION): inactive; negative
- mutagenic call (Test System: E. COLI, Strain/Indicator: WP2 UVRA, Metabolic Activation: HAMSTER, LIVER, S-9, Method: PREINCUBATION): inactive; negative
- mutagenic call (Test System: E. COLI, Strain/Indicator: WP2 UVRA, Metabolic Activation: MOUSE, LIVER, S-9, AROCLOR 1254, Method: PREINCUBATION): inactive; negative
- mutagenic call (Test System: E. COLI, Strain/Indicator: WP2 UVRA, Metabolic Activation: MOUSE, LIVER, S-9, Method: PREINCUBATION): inactive; negative
- mutagenic call (Test System: E. COLI, Strain/Indicator: WP2 UVRA, Metabolic Activation: NONE, Method: PREINCUBATION): inactive; negative
- mutagenic call (Test System: E. COLI, Strain/Indicator: WP2 UVRA, Metabolic Activation: RAT, LIVER, S-9, AROCLOR 1254, Method: PREINCUBATION): inactive; negative
- mutagenic call (Test System: E. COLI, Strain/Indicator: WP2 UVRA, Metabolic Activation: RAT, LIVER, S-9, Method: PREINCUBATION): inactive; negative

SMILES: CC(=O)OCN(N=O)c1ccccc1
- mutagenic call (Test System: AMES SALMONELLA TYPHIMURIUM, Strain/Indicator: TA1537, Metabolic Activation: NONE, Method: LIQUID INCUBATION): active; positive

SMILES: Oc1ccc(/C=C/c2cc(O)cc(O)c2)cc1
- mutagenic call (End Point: CHROMOSOMAL ABERRATIONS, Test System: CHINESE HAMSTER LUNG CELLS, Metabolic Activation: NONE): active; positive (structural and ploidy changes)
- mutagenic call (Test System: Ames Salmonella typhimurium, Strain/Indicator: TA102, Metabolic Activation: None, Method: Preincubation): inactive; negative
- mutagenic call (Test System: Ames Salmonella typhimurium, Strain/Indicator: TA102, Metabolic Activation: Rat, Liver, S-9, Aroclor 1254 in 0.154 M KCl, Method: Preincubation): inactive; negative

SMILES: C[C@H](CCC(=O)O)[C@H]1CC[C@H]2[C@@H]3CC[C@@H]4C[C@H](O)CC[C@]4(C)[C@H]3C[C@H](O)[C@]12C
- mutagenic call [3]: inactive; negative
- mutagenic call (Test System: AMES SALMONELLA TYPHIMURIUM, Strain/Indicator: TA98, Method: PREINCUBATION): inactive; negative
- mutagenic call [4]: inactive; negative
- mutagenic call [5]: inactive; negative

SMILES: CC(C)(C)ON=O
- mutagenic call [6]: active; positive
- mutagenic call (Test System: AMES SALMONELLA TYPHIMURIUM, Strain/Indicator: TA100, Metabolic Activation: RAT, LIVER, S-9, AROCLOR, Method: PREINCUBATION): inactive; negative
- mutagenic call (Test System: AMES SALMONELLA TYPHIMURIUM, Strain/Indicator: TA102, Metabolic Activation: NONE, Method: PREINCUBATION): inactive; negative

SMILES: CCCCC(CC)COC(=O)c1ccc(C(=O)O)cc1 (centres undefined)
- mutagenic call [7]: inactive; negative
- mutagenic call (Test System: AMES SALMONELLA TYPHIMURIUM, Strain/Indicator: TA98, Metabolic Activation: RAT, LIVER, S-9, AROCLOR 1254, Method: STANDARD PLATE): inactive; negative
- mutagenic call [4]: inactive; negative
- mutagenic call [5]: inactive; negative
- mutagenic call [2]: inactive; negative
- mutagenic call (Test System: AMES SALMONELLA TYPHIMURIUM, Strain/Indicator: TA1535, Metabolic Activation: RAT, LIVER, S-9, AROCLOR 1254, Method: STANDARD PLATE): inactive; negative
- mutagenic call [8]: inactive; negative
- mutagenic call (Test System: AMES SALMONELLA TYPHIMURIUM, Strain/Indicator: TA1537, Metabolic Activation: RAT, LIVER, S-9, AROCLOR 1254, Method: STANDARD PLATE): inactive; negative
- mutagenic call (Test System: AMES SALMONELLA TYPHIMURIUM, Strain/Indicator: TA1538, Metabolic Activation: NONE, Method: STANDARD PLATE): inactive; negative
- mutagenic call (Test System: AMES SALMONELLA TYPHIMURIUM, Strain/Indicator: TA1538, Metabolic Activation: RAT, LIVER, S-9, AROCLOR 1254, Method: STANDARD PLATE): inactive; negative

SMILES: c1ccc([C@H]2N[C@@H]2c2ccccc2)cc1
- mutagenic call [7]: inactive; negative
- mutagenic call [4]: active; positive
- mutagenic call [8]: inactive; negative

SMILES: CCCCCCCCC1CO1 (centres undefined)
- mutagenic call (Test System: AMES SALMONELLA TYPHIMURIUM, Strain/Indicator: TA97, Metabolic Activation: HAMSTER, LIVER, S-9, AROCLOR 1254 (10% & 30%), Method: PREINCUBATION): inactive; negative
- mutagenic call (Test System: AMES SALMONELLA TYPHIMURIUM, Strain/Indicator: TA97, Metabolic Activation: NONE, Method: PREINCUBATION): inactive; negative
- mutagenic call (Test System: AMES SALMONELLA TYPHIMURIUM, Strain/Indicator: TA97, Metabolic Activation: RAT, LIVER, S-9, AROCLOR 1254 (10% & 30%), Method: PREINCUBATION): inactive; negative
- mutagenic call (Test System: AMES SALMONELLA TYPHIMURIUM, Strain/Indicator: TA98, Metabolic Activation: HAMSTER, LIVER, S-9, AROCLOR 1254 (10% & 30%), Method: PREINCUBATION): inactive; negative
- mutagenic call [3]: inactive; negative
- mutagenic call (Test System: AMES SALMONELLA TYPHIMURIUM, Strain/Indicator: TA98, Metabolic Activation: RAT, LIVER, S-9, AROCLOR 1254 (10% & 30%), Method: PREINCUBATION): inactive; negative
- mutagenic call (Test System: AMES SALMONELLA TYPHIMURIUM, Strain/Indicator: TA100, Metabolic Activation: HAMSTER, LIVER, S-9, AROCLOR 1254 (10% & 30%), Method: PREINCUBATION): inactive; negative
- mutagenic call [6]: inactive; negative
- mutagenic call (Test System: AMES SALMONELLA TYPHIMURIUM, Strain/Indicator: TA100, Metabolic Activation: RAT, LIVER, S-9, AROCLOR 1254 (10% & 30%), Method: PREINCUBATION): inactive; negative
- mutagenic call (Test System: AMES SALMONELLA TYPHIMURIUM, Strain/Indicator: TA1535, Metabolic Activation: HAMSTER, LIVER, S-9, AROCLOR 1254 (10% & 30%), Method: PREINCUBATION): inactive; negative
- mutagenic call [1]: inactive; negative
- mutagenic call (Test System: AMES SALMONELLA TYPHIMURIUM, Strain/Indicator: TA1535, Metabolic Activation: RAT, LIVER, S-9, AROCLOR 1254 (10% & 30%), Method: PREINCUBATION): inactive; negative
- mutagenic call (Test System: AMES SALMONELLA TYPHIMURIUM, Strain/Indicator: TA1537, Metabolic Activation: HAMSTER, LIVER, S-9, AROCLOR 1254 (10% & 30%), Method: PREINCUBATION): inactive; negative
- mutagenic call (Test System: AMES SALMONELLA TYPHIMURIUM, Strain/Indicator: TA1537, Metabolic Activation: NONE, Method: PREINCUBATION): inactive; negative
- mutagenic call (Test System: AMES SALMONELLA TYPHIMURIUM, Strain/Indicator: TA1537, Metabolic Activation: RAT, LIVER, S-9, AROCLOR 1254 (10% & 30%), Method: PREINCUBATION): inactive; negative
- mutagenic call (Test System: UDS RAT HEPATOCYTES, Strain/Indicator: THY INCORP, Metabolic Activation: NONE): inactive; negative
